Reference: US8829007B2 (priority 2009, dated 2014)
Read-outs that look alike come from different tables or passages of the source.

What was measured:
[1] = tested on: influenza A virus (A/PR/8/34); assay: microbe, parasite or virus in culture; format: cell-based
[2] = tested on: A/PR/8/34 influenza virus; assay: microbe, parasite or virus in culture; format: cell-based
[3] = Influenza A virus, PR/8, MDCK, mean all, A/PR/8/34 infected MDCK cells, CPE assay, read-out: IC50
[4] = Influenza A virus, PR/8, MDCK, mean all, A/PR/8/34 influenza virus in MDCK cells, bDNA assay, read-out: EC50
[5] = Influenza A virus, PR/8, MDCK, MDCK cells infected with A/PR/8/34, cell protection (CPE), read-out: IC50 (mean all)
[6] = Influenza A virus, PR/8, MDCK, MDCK cells infected with A/PR/8/34, bDNA viral RNA, read-out: EC50 (mean all)
[7] = Influenza A virus, PR/8, MDCK, MDCK cells infected with A/PR/8/34, survival of infected cells, class symbols, read-out: IC50 (mean all)
[8] = Influenza A virus, PR/8, MDCK, MDCK cells infected with A/PR/8/34, replication of influenza virus (viral RNA, bDNA), class symbols, read-out: EC50 (mean all)
[9] = CPE assay, A/PR/8/34 infected MDCK cells, class symbols, read-out: IC50 (mean all)
[10] = bDNA assay, A/PR/8/34 influenza virus replication in MDCK cells, class symbols, read-out: EC50 (mean all)
[11] = Influenza A virus, PR/8, MDCK, CPE assay, A/PR/8/34 infected MDCK cells, class symbols, read-out: IC50 (mean all)
[12] = Influenza A virus, PR/8, MDCK, bDNA assay, A/PR/8/34 influenza virus replication in MDCK cells, class symbols, read-out: EC50 (mean all)

## CC(C)CC(=O)N1CCC[C@H](Nc2nc(-c3c[nH]c4ncc(Cl)cc34)ncc2F)C1 [Compound 332]
[1]; [3]
  IC50: < 5 µM
[2]; [4]
  EC50: < 5 µM

## CCOC(=O)CNC(=O)N1CCC[C@@H](CNc2nc(-c3c[nH]c4ncc(Cl)cc34)ncc2F)C1 [Compound 25, (S)-ethyl 2-(3-((2-(5-chloro-1H-pyrrolo[2,3-b]pyridin-3-yl)-5-fluoropyrimidin-4-ylamino)methyl)piperidine-1-carboxamido)ethanoate]
[1]; [5]
  IC50: < 5 µM
[2]; [6]
  EC50: < 5 µM

## O=S(=O)(CC1CCCC1)N1CCC[C@H](Nc2nc(-c3c[nH]c4ncc(Cl)cc34)ncc2F)C1 [Compound 392, (S)-2-(5-chloro-1H-pyrrolo[2,3-b]pyridin-3-yl)-N-(1-(cyclopentylmethylsulfonyl)piperidin-3-yl)-5-fluoropyrimidin-4-amine]
[1]; [3]
  IC50: < 5 µM
[2]; [4]
  EC50: < 5 µM

## O=C(NC1CC2CC(Nc3nc(-c4c[nH]c5ncc(F)cc45)ncc3F)C1C2)N1CCCC1 (single isomer, unassigned) [Compound 1045, N-[6-[[5-fluoro-2-(5-fluoro-1H-pyrrolo[2,3-b]pyridin-3-yl)pyrimidin-4-yl]amino]norbornan-2-yl]pyrrolidine-1-carboxamide]
[1]; Influenza A virus, PR/8, MDCK, MDCK cells, A/PR/8/34, ATP readout, mean all, read-out: Cell Flu, MDCK protection, ATP (All: IC50: uM)(Mean (All))
  IC50: < 5 µM
[2]; Influenza A virus, PR/8, 30 h, HA(−) 30 hr, A/PR/8, bDNA, mean all, read-out: Cell Influenza HA(−) 30 hr A/PR/8 bDNA:bDNA EC50 uM(Mean (All))
  EC50: < 5 µM

## CC(C)(C)C(=O)N1CCOCC1CNc1nc(-c2c[nH]c3ncc(Cl)cc23)ncc1F (stereo not drawn) [Compound 530, 1-(3-((2-(5-chloro-1H-pyrrolo[2,3-b]pyridin-3-yl)-5-fluoropyrimidin-4-ylamino)methyl)morpholino)-2,2-dimethylpropan-1-one]
[1]; [7]
  IC50: > 20 µM
[2]; [8]
  EC50: 5 to 10 µM

## CN1CCN([C@@H]2CCCC(Nc3nc(-c4c[nH]c5ncc(Cl)cc45)ncc3F)C2)C1=O (stereo partly drawn) [Compound 958]
[1]; Influenza A virus, PR/8, MDCK, mean all, survival of A/PR/8/34 infected MDCK cells (CPE assay), read-out: IC50
  IC50: < 5 µM
[2]; Influenza A virus, PR/8, mean all, replication of A/PR/8/34 influenza virus (bDNA assay), read-out: EC50
  EC50: < 5 µM

## O=C(O)C1CNCCC1Nc1nc(-c2c[nH]c3ncc(Cl)cc23)ncc1F (stereo not drawn) [Compound 605]
[1]; [9]
  IC50: > 10 µM
[2]; [10]
  EC50: > 3.3 µM

## CC#CCOC(=O)N1CCC[C@@H](CNc2nc(-c3c[nH]c4ncc(Cl)cc34)ncc2F)C1 [Compound 30, (S)-but-2-ynyl 3-((2-(5-chloro-1H-pyrrolo[2,3-b]pyridin-3-yl)-5-fluoropyrimidin-4-ylamino)methyl)piperidine-1-carboxylate]
[1]; Influenza A virus, PR/8, MDCK, read-out: IC50 (mean all)
  IC50: 5 to 20 µM
[2]; Influenza A virus, PR/8, MDCK, read-out: EC50 (mean all)
  EC50: < 5 µM

## OC[C@@H](O)CN1CCCC(Nc2nc(-c3c[nH]c4ncc(Cl)cc34)ncc2F)C1 (stereo partly drawn) [Compound 587]
[1]; [7]
  IC50: < 5 µM
[2]; [8]
  EC50: < 5 µM

## O=S(=O)(C1CC1)N1CCC[C@H](CNc2nc(-c3c[nH]c4ncc(Cl)cc34)ncc2F)C1 [Compound 61, (R)-2-(5-chloro-1H-pyrrolo[2,3-b]pyridin-3-yl)-N-((1-(cyclopropylsulfonyl)piperidin-3-yl)methyl)-5-fluoropyrimidin-4-amine]
[1]; [5]
  IC50: < 5 µM
[2]; [6]
  EC50: < 5 µM

## CCCCC(=O)N1CCCC[C@@H]1CNc1nc(-c2c[nH]c3ncc(Cl)cc23)ncc1F [Compound 326, (R)-1-(2-((2-(5-chloro-1H-pyrrolo[2,3-b]pyridin-3-yl)-5-fluoropyrimidin-4-ylamino)methyl)piperidin-1-yl)pentan-1-one]
[1]; [3]
  IC50: 5 to 20 µM
[2]; [4]
  EC50: < 5 µM

## (R)—N-cyclopropyl-2-((5-fluoro-2-(1H-pyrrolo[2,3-b]pyridin-3-yl)pyrimidin-4-ylamino)-methyl)piperidine-1-carboxamide [Compound 372]
[1]; read-out: IC50
  IC50: 5 to 20 µM
[2]; mean all, A/PR/8/34 influenza virus in MDCK cells, bDNA assay, read-out: EC50
  EC50: 5 to 10 µM

## CC(=O)N1CCCC[C@@H]1CNc1nc(-c2c[nH]c3ncc(Cl)cc23)ncc1F [Compound 179, (R)-1-(2-((2-(5-chloro-1H-pyrrolo[2,3-b]pyridin-3-yl)-5-fluoropyrimidin-4-ylamino)methyl)piperidin-1-yl)ethanone]
[1]; [5]
  IC50: < 5 µM
[2]; [6]
  EC50: < 5 µM

## CS(=O)(=O)N1CCCC[C@@H]1CNc1nc(-c2c[nH]c3ncc(Cl)cc23)ncc1F [Compound 381, (R)-2-(5-chloro-1H-pyrrolo[2,3-b]pyridin-3-yl)-5-fluoro-N-((1-(methylsulfonyl)-piperidin-2-yl)methyl)pyrimidin-4-amine]
[1]; [3]
  IC50: < 5 µM
[2]; [4]
  EC50: < 5 µM

## O=C(c1ccc(Cl)cc1Cl)N1CCC[C@H](CNc2nc(-c3c[nH]c4ncc(Cl)cc34)ncc2F)C1 [Compound 147, (R)-(3-((2-(5-chloro-1H-pyrrolo[2,3-b]pyridin-3-yl)-5-fluoropyrimidin-4-ylamino)methyl)piperidin-1-yl)(2,4-dichlorophenyl)methanone]
[1]; [5]
  IC50: < 5 µM
[2]; [6]
  EC50: < 5 µM

## COCC(=O)N[C@@H]1CCC[C@H](Nc2nc(-c3c[nH]c4ncc(Cl)cc34)ncc2F)C1 [Compound 591, N-[(1R,3S)-3-[[2-(5-chloro-1H-pyrrolo[2,3-b]pyridin-3-yl)-5-fluoro-pyrimidin-4-yl]amino]cyclohexyl]-2-methoxy-acetamide]
[1]; [7]
  IC50: < 5 µM
[2]; [8]
  EC50: < 5 µM

## O=C(N[C@@H]1CCC[C@H](Nc2nc(-c3c[nH]c4ncc(Cl)cc34)ncc2F)C1)O[C@H]1CCOC1 [Compound 649]
[1]; [11]
  IC50: < 5 µM
[2]; [12]
  EC50: < 5 µM

## C#CC1(O)CCCC(Nc2nc(-c3c[nH]c4ncc(Cl)cc34)ncc2F)C1 (stereo not drawn) [Compound 617]
[1]; [9]
  IC50: < 5 µM
[2]; [10]
  EC50: < 5 µM

## CCC(=O)N1CCC[C@H](Nc2nc(-c3c[nH]c4ncc(Cl)cc34)ncc2F)C1 [Compound 435]
[1]; [3]
  IC50: < 5 µM
[2]; [4]
  EC50: < 5 µM

## COc1ccccc1C(=O)N1CCC[C@H](CNc2nc(-c3c[nH]c4ncc(Cl)cc34)ncc2F)C1 [Compound 113, (R)-(3-((2-(5-chloro-1H-pyrrolo[2,3-b]pyridin-3-yl)-5-fluoropyrimidin-4-ylamino)methyl)piperidin-1-yl)(2-methoxyphenyl)methanone]
[1]; [5]
  IC50: < 5 µM
[2]; [6]
  EC50: < 5 µM

## O=C(c1ccc(F)cc1)N1CCCC[C@@H]1CNc1nc(-c2c[nH]c3ncc(Cl)cc23)ncc1F [Compound 209, (R)-(2-((2-(5-chloro-1H-pyrrolo[2,3-b]pyridin-3-yl)-5-fluoropyrimidin-4-ylamino)methyl)piperidin-1-yl)(4-fluorophenyl)methanone]
[1]; [5]
  IC50: < 5 µM
[2]; [6]
  EC50: < 5 µM

## CC(C)OC(=O)[C@@H]1CCCC[C@H]1Nc1nc(-c2c[nH]c3ncc(Cl)cc23)ncc1F [Compound 568, (1R,2R)-isopropyl 2-(2-(5-chloro-1H-pyrrolo[2,3-b]pyridin-3-yl)-5-fluoropyrimidin-4-ylamino)cyclohexanecarboxylate]
[1]; [7]
  IC50: > 10 µM
[2]; [8]
  EC50: > 10 µM

## O[C@@H]1[C@@H](O)CCC[C@H]1Nc1nc(-c2c[nH]c3ncc(Cl)cc23)ncc1F [Compound 624]
[1]; [11]
  IC50: < 5 µM
[2]; [12]
  EC50: 5 to 10 µM

## O=C1NCCCC[C@@H]1Nc1ccnc(-c2c[nH]c3ncc(Cl)cc23)n1 [Compound 500]
[1]; [7]
  IC50: < 5 µM
[2]; [8]
  EC50: < 5 µM

## CCCS(=O)(=O)N1CCC[C@@H](Nc2nc(-c3c[nH]c4ncc(Cl)cc34)ncc2F)C1 [Compound 316, (R)-2-(5-chloro-1H-pyrrolo[2,3-b]pyridin-3-yl)-5-fluoro-N-(1-(propylsulfonyl)piperidin-3-yl)pyrimidin-4-amine]
[1]; [3]
  IC50: 5 to 20 µM
[2]; [4]
  EC50: < 5 µM

## CC(C)C(=O)NC1CCCC(Nc2nc(-c3c[nH]c4ncc(Cl)cc34)ncc2F)C1 (stereo not drawn) [Compound 685]
[1]; mean all, MDCK cells infected with A/PR/8/34, cell protection (CPE), read-out: IC50
  IC50: < 5 µM
[2]; mean all, bDNA viral RNA in MDCK cells infected with A/PR/8/34, read-out: EC50
  EC50: < 5 µM

## O=S(=O)(CC(F)(F)F)N1CCCC[C@@H]1CNc1nc(-c2c[nH]c3ncc(Cl)cc23)ncc1F [Compound 383, (R)-2-(5-chloro-1H-pyrrolo[2,3-b]pyridin-3-yl)-5-fluoro-N-((1-(2,2,2-trifluoro-ethylsulfonyl)-piperidin-2-yl)methyl)pyrimidin-4-amine]
[1]; [3]
  IC50: < 5 µM
[2]; [4]
  EC50: < 5 µM

## COCCOC(=O)N1CCCC[C@H]1CNc1nc(-c2c[nH]c3ncc(Cl)cc23)ncc1F [Compound 161, (S)-2-methoxyethyl 2-((2-(5-chloro-1H-pyrrolo[2,3-b]pyridin-3-yl)-5-fluoropyrimidin-4-ylamino)methyl)piperidine-1-carboxylate]
[1]; [5]
  IC50: > 20 µM
[2]; [6]
  EC50: < 5 µM

## O=C(C1CC1)N1CCC[C@H](CNc2nc(-c3c[nH]c4ncc(Cl)cc34)ncc2F)C1 [Compound 325, (R)-(3-((2-(5-chloro-1H-pyrrolo[2,3-b]pyridin-3-yl)-5-fluoropyrimidin-4-ylamino)methyl)piperidin-1-yl)(cyclopropyl)methanone]
[1]; [3]
  IC50: 5 to 20 µM
[2]; [4]
  EC50: < 5 µM

## CNC(=O)C(C)N1CCCC(Nc2nc(-c3c[nH]c4ncc(Cl)cc34)ncc2F)C1 [Compound 606, 2-((S)-3-((2-(5-chloro-1H-pyrrolo[2,3-b]pyridin-3-yl)-5-fluoropyrimidin-4-ylamino)piperidin-1-yl)-N-methylpropanamide]
[1]; [11]
  IC50: < 5 µM
[2]; [12]
  EC50: < 5 µM
